Results: PubChem BioAssay AID2384 (Southern Research Specialized Biocontainment Screening …, 2010)
Where “and” joins values, the source holds several entries; their conditions need not be identical. Identical values can stand only once.

These molecules were tested on S. typhi GFP reporter counter-screen, fluorescence, 4 h (assay: inhibitors in S. typhi counter-screen strain, dose response, counter-screen for PhoP regulon inhibitor project, fluorescence, 4 h (AID 2384)).

Compound | IC50
CCCCCCCCCCOC(=O)Cn1c(COc2ccc(OC)cc2)[n+](C)c2ccccc21 | 12.1 µM and 10 µM
Cc1cccc(NC2=NC3(CCCCC3)N=C(N)N2)c1 | 76.6 µM
O=C(CNCCC1=CCCCC1)Nc1ccc(N2CCCCCC2)cc1 | 24.7 µM
NC1=NC[C@H](c2ccccc2)N1CCCCC1CCCCC1 | 28.9 µM
O=C(N/N=C/c1sc2ccccc2c1O)c1cccc2ccccc12 | 25.8 µM
Cc1cc(N/N=C/c2ccc(O)cc2)c2cccc(C)c2n1 | 47.5 µM
COc1ccc(Cl)cc1C(=O)C1CCCN(CCO)C1 (stereo unspecified) | 56.2 µM
CCCCOCCCNc1ncnc2c1[nH]c1ccccc12 | 77.4 µM
CCCCCCOc1ccc(CN2CCN(CC)CC2)cc1 | 100 µM
CN(Cc1ccccc1)CC(O)COc1ccc(CNCc2ccc(Cl)s2)cc1 (stereo unspecified) | 30.4 µM
CC(NCc1ccccc1O)C12CC3CC(CC(C3)C1)C2 (stereo unspecified) | 33.9 µM
CCCCCOc1ccc(C)cc1CN(CCCl)CCCl | 70.3 µM
CC1CCN(CCOCCOc2ccc(Br)cc2Cl)CC1 | 97.8 µM
Cc1cc(NC(=O)c2ccc3[nH]c(C)c(C)c3c2)ccn1 | 65.5 µM
CC(C)CCC(CCNCc1ccccn1)c1ccc(Cl)cc1 (stereo unspecified) | 54.7 µM
C/C(O)=C\c1nc2ccccc2oc1=O | 41.6 µM
CCOC(=O)N/N=C(/C)c1ccc([N+](=O)[O-])o1 | 73.6 µM
CN(C)CCCn1c(SCC(=O)N2c3ccccc3Sc3ccccc32)nc2ccccc2c1=O | 47.2 µM
C#CCOCCOCCOCCNc1nc(N2CCN(C(=O)[C@H](Cc3cc4ccccc4[nH]3)n3cc([C@@H](N)C(C)CC)nn3)CC2)nc(N2CCN(C(=O)[C@H](Cc3cc4ccccc4[nH]3)n3cc([C@@H](N)CC(C)C)nn3)CC2)n1 (stereo partly specified) | 24.1 µM
O=C(NC(=S)NNC(=O)c1cnccn1)c1ccc(F)cc1 | 24.4 µM
Cc1c(N=Cc2cc(Br)cc(Br)c2O)cccc1C(=O)O | 39.5 µM
CCCCc1ccc2[nH]cc(CCN)c2c1 | 77 µM
S=C(NCc1ccc(Cl)cc1)Nc1ccncc1 | 35 µM

Compound | IC50
CC(=O)Nc1cccc(NC(=O)Nc2ccc(F)cc2F)c1 | 142 µM
CCN1CCN(CCCNC(=O)c2ccc(/C=C3/Sc4ccccc4N(Cc4ccccc4F)C3=O)cc2)CC1 | 85.4 µM
C=CC1=C(C(=O)O)N2C(=O)[C@@H](NC(=O)/C(=N\O)c3csc(N)n3)[C@H]2SC1 (stereo in doubt) | 15.4 µM
CC[n+]1c(/C=C/N(C)c2ccccc2)n(-c2ccccc2)c2ccc(-c3nc4ccccc4s3)cc21 | 9.23 µM
CN(CCOc1ccc(Cl)cc1)CC(O)c1ccccc1 (stereo unspecified) | 126 µM
CN1CCN(CC(=O)N2CCn3c4c(c5cc(C6CCCCC6)ccc53)CCCC42)CC1 (stereo unspecified) | 36.9 µM
CCC(O)(CC)C(=O)N/N=C/c1cc(Br)cc(Br)c1O | 70.2 µM
Cc1ccc(C[n+]2c(-c3ccc(C)cc3)cc(-c3ccc(C)cc3)cc2-c2ccc(C)cc2)cc1 | 15.6 µM
CCCCCCCCCCCCCCCC[N+](C)(C)CC | 19.3 µM
C[C@H]1c2cccc(O)c2C(O)=C2C(=O)[C@]3(O)C(O)=C(C(N)=O)C(=O)[C@@H](N(C)C)[C@@H]3[C@@H](O)[C@@H]21 | 1.56 µM
CCCCCCCNC(=O)C1(CC2CC(c3ccc(Cl)cc3)=NO2)CCNCC1 (stereo unspecified) | 23.8 µM
Oc1cccc(Nc2nc(NCC3CCCO3)c3ccccc3n2)c1 (stereo unspecified) | 38.1 µM
C#CCOCCOCCOCCNc1nc(N2CCN(C(=O)[C@H](Cc3cc4ccccc4[nH]3)n3cc([C@@H](N)CC(C)C)nn3)CC2)nc(N2CCN(C(=O)[C@H](Cc3cc4ccccc4[nH]3)n3cc([C@@H](N)CC(C)C)nn3)CC2)n1 | 19.1 µM
O=C(C[n+]1ccccc1)c1ccc(-c2ccccc2)cc1 | 123 µM
S=C(Nc1cc(Cl)cc(Cl)c1)NC1CCN(Cc2ccccc2)CC1 | 82 µM
CCCOc1ccc(C(=O)NNC(=S)NC(C)=O)cc1 | 39.2 µM
c1ccc(Nc2nc(NCc3ccco3)c3ccccc3n2)cc1 | 21.5 µM
CN(C)CCCOC(=O)c1sc2ccccc2c1Cl | 68.6 µM
O=C(NNC(=S)NC(=O)c1ccco1)c1ccc(F)cc1 | 130 µM
Cc1nc(N)nc(N)c1CCCc1ccc(Cl)c(Cl)c1 | 31.5 µM
Cc1c(Cl)cccc1Nc1nc(NCCO)c2ccccc2n1 | 40.1 µM
CN1CCc2nc(SCC(=O)Nc3ccc(Cl)cc3)c(C#N)cc2C1 | 93.5 µM
O=C(C[n+]1cnn(CC(=O)c2ccc(Cl)cc2Cl)c1)c1ccc([N+](=O)[O-])cc1 | 36.1 µM

Compound | IC50
CSc1cccc(NC(=O)/C=C/c2ccccc2)c1 | 72 µM
OCCCCNCc1ccc(OCc2ccc(Cl)cc2Cl)cc1 | 56.7 µM
Oc1ccc(/C=N/N=C(c2ccccc2)c2ccccc2)c(O)c1O | 33.6 µM
Cc1ccc(NC(=O)c2ccc([N+](=O)[O-])o2)c(C)c1 | 67.9 µM
Cc1cccc(Nc2cc(C)c3c(O)cccc3n2)c1C | 34 µM
Cc1ccc(C(=O)N/C(=C\c2ccc(-c3ccc(Cl)cc3)o2)C(=O)NCCCN(C)C)cc1 | 36.4 µM
COc1c(N2CCN(C(=S)Nc3ccccc3F)C(C)C2)c(F)cc2c(=O)c(C(=O)O)cn(C3CC3)c12 (stereo unspecified) | 9.45 µM
O=C(N/N=C/c1cc(Cl)cc([N+](=O)[O-])c1O)C1CC1 | 98 µM
CCC(C)NC(=O)c1cn(CC)c2cc(N3CCN(C)CC3)c(F)cc2c1=O (stereo unspecified) | 38.2 µM
C/C(=N\NC(=O)c1ccc(Cl)cc1)c1ccccn1 | 28.9 µM
O=C(c1ccccc1)c1c2c(cc3sc4ccccc4[n+]13)-c1cccc3cccc-2c13 | 55.4 µM
O=C1CSC(=S)N1c1cccnc1 | 78.8 µM
CCn1nnc(NC(=O)c2ccc([N+](=O)[O-])o2)n1 | 80 µM
Cc1ccc(C(C[N+](=O)[O-])Sc2ccc(N)cc2)cc1 (stereo unspecified) | 26.7 µM
CCN1CCCC1Cn1cnc2c([nH]c3ccc(Cl)cc32)c1=O (stereo unspecified) | 118 µM
O=[N+]([O-])c1cc([N+](=O)[O-])c2cccnc2c1Oc1ccccc1O | 41.7 µM
O=C(O)c1csc(-c2ccc(Cl)cc2)n1 | 120 µM
Cc1ccccc1C(=O)N/N=C/c1ccc([N+](=O)[O-])s1 | 75.3 µM
CCc1ccc2c(c1)C1(NN=C(c3ccc(C)cc3)S1)C(=O)N2 (stereo unspecified) | 38.5 µM
O=C(c1ccc([N+](=O)[O-])o1)N1CCOCC1 | 81.8 µM
c1ccc2c(c1)CSc1sccc1C2=C1CCNCC1 | 80.3 µM
Cc1ccc(-c2c[n+](CC(=O)Nc3nc(-c4ccccc4)cs3)c3n2CCC3)cc1 | 21.2 µM
Cc1cccc(Nc2nc(NCc3ccco3)c3ccccc3n2)c1 | 14 µM

Compound | IC50
CCOc1ccc(Nc2c3ccccc3nc3ccccc23)cc1 | 19.6 µM
CN(C)c1ccc(O)c2c1CC1CC3[C@@H](N(C)C)C(=O)C(C(N)=O)=C(O)[C@]3(O)C(=O)C1=C2O (stereo partly specified) | 3.9 µM
CC(=O)NC(c1ccc(Cl)cc1Cl)c1ccc2cccnc2c1O (stereo unspecified) | 39.6 µM
C#CCOCCOCCOCCNc1nc(N2CCN(C(=O)CCCCCCCCCCNC(=O)Cn3cc(CCCCCN)nn3)CC2)nc(N2CCN(C(=O)CCCCCCCCCCNC(=O)[C@H]([C@@H](C)CC)n3cc(CCCCN=C(N)N)nn3)CC2)n1 | 38.2 µM
Clc1ccc(Nc2ccc(NCc3ccccc3)nn2)cc1 | 90.7 µM
Cc1cc(C)n2nc(S(=O)(=O)Nc3c(Cl)cccc3Cl)nc2n1 | 49.7 µM
Oc1c(CN2CCOCC2)cc(COCc2ccccc2)c2cccnc12 | 36 µM
COc1cc(CNCCc2c[nH]c3ccccc23)ccc1OCc1ccc(F)cc1 | 37.6 µM
CN(C)c1ccc(O)c2c1CC1CC3C(N(C)C)C(=O)C(C(N)=O)=C(O)[C@@]3(O)C(=O)C1=C2O (stereo partly specified) | 1.69 µM
O=C(Nc1nnc(-c2cccs2)o1)c1cccc(Oc2ccccc2)c1 | 59.6 µM
Clc1cccc(CN2CCc3c([nH]c4ccccc34)C2)c1Cl | 136 µM
CCCCCc1ccc(OCCC[n+]2ccccc2)c(CCCCC)c1 | 32.9 µM
COc1cccc(CNCCc2c[nH]c3ccccc23)c1OCc1ccccc1 | 89.1 µM
CN1CCN(C(c2ccc(C(F)(F)F)cc2)c2ccc3cccnc3c2O)CC1 (stereo unspecified) | 21.8 µM
Cn1c(-c2ccc3c(c2)OCO3)cnc1NCc1ccc(Cl)cc1 | 76.3 µM
O=[N+]([O-])c1cc(O)c2ncccc2c1 | 15.9 µM
CCC[C@H](CN[C@@H](CNC)[C@H](C)CC)NCCc1cc(C(F)(F)F)cc(C(F)(F)F)c1 | 25.1 µM
Cc1ccc(OCC(=O)N/N=C/c2ccc([N+](=O)[O-])o2)cc1 | 28.1 µM
O=C(N/N=C/c1cc(Br)ccc1O)c1ccccc1Cl | 112 µM
O=S1(=O)CC=C(CSC(=S)NC2CCS(=O)(=O)C2)C1 (stereo unspecified) | 39.1 µM
O=C(NCCCN1CCOCC1)c1sc2cc(Cl)ccc2c1Cl | 81.7 µM
CCOc1cccc(/C=N/NC(=O)c2cc(C3CC3)[nH]n2)c1O | 127 µM
CC(=O)NNC(=S)NC(=O)c1ccccc1 | 18 µM

Compound | IC50
N/C(=N\OS(=O)(=O)c1ccc2ccccc2c1)c1cccnc1 | 17.3 µM
OCCN1CCN(CCCN2c3ccccc3Sc3ccc(C(F)(F)F)cc32)CC1 | 75.1 µM
C=CCNc1ncnc2c1[nH]c1ccc(C)cc12 | 111 µM
Clc1ccc(C(c2ccccc2)N2CCNCC2)cc1 (stereo unspecified) | 97.5 µM
N/C(=N\OS(=O)(=O)c1ccccc1)c1cccnc1 | 12.4 µM
c1ccc(CN2CCN(c3nc(NCc4ccco4)c4ccccc4n3)CC2)cc1 | 64.6 µM
CN(C)CCCNc1cc(C(C)(C)C)nc2c(-c3ccccc3)cnn12 | 31.5 µM
C#CCOCCOCCOCCNc1nc(N2CCN(C(=O)CCCCCCCCCCNC(=O)[C@H](CCCCN)n3cc(C)nn3)CC2)nc(N2CCN(C(=O)CCCCCCCCCCNC(=O)[C@H](CCCN=C(N)N)n3cc(C[C@@H](C)CC)nn3)CC2)n1 | 20.7 µM
CN1CCN(c2c(F)cc3c(=O)c(C(=O)O)cn4c3c2OCN4C)CC1 | < 0.55 µM
CN1CCN(C(c2ccc(Br)cc2)c2cc(Cl)c3cccnc3c2O)CC1 (stereo unspecified) | 35.4 µM
Cc1cc(NS(=O)(=O)c2ccc(NC(=O)Nc3cccc(Cl)c3)cc2)no1 | 120 µM
Clc1cccc(/C=N\Nc2nccs2)c1 | 15.8 µM
CCCCCN=C(N)N/N=C/c1c[nH]c2ccc(OC)cc12 | 26.9 µM
O=C(N/N=C/c1cc(Br)ccc1O)c1ccncc1 | 20.6 µM
NC(=O)c1ccc(N=C2C(=O)Nc3ccc([N+](=O)[O-])cc32)cc1 | 72.8 µM
Nc1cc(Cl)c2nonc2c1[N+](=O)[O-] | 32.6 µM
O=C(CNC(=O)c1ccccc1)N/N=C/c1ccc([N+](=O)[O-])s1 | 28.7 µM
CCCCCCOC(=O)C[N+](C)(C)CCOC1CC2CCC1(C)C2(C)C (stereo unspecified) | 27 µM
Cc1cc(C)n(-c2nc(SCCN(C)C)c3c4c(sc3n2)CCCC4)n1 | 37.8 µM
